Two molecules from patent publication US10753938B2, “Beta-catenin inhibitors in cancer immunotherapy” (The University of Chicago, priority 2015, dated 2020) can be followed below.

The test system of experiment [1] is skin-derived CD11c^+CD103^+DCs. Nature of the experiment: Transwell migration assay. It is filed as cell-based, mouse. Here is the method:
Dendritic cell populations were isolated from lymph nodes and skin of naïve 6 week-old C57BL/6 mice. For this purpose, skin tissue was digested in a similar way as tumor tissue and\ cells from skin and lymph node were stained using the previously described protocol for cell sorting. Subsequently, living, CD45^+, CD11c^+, CD8α^− or CD8α^+ cells were isolated from the lymph node sample as well as living, CD45^+, CD11c^+, CD103^+ from skin samples. Migration assays were performed as described previously with minor adaptations using 5×10^5 cells/well and pre-treatment of DC with pertussis toxin (Sigma) at a final concentration of 20 ng/ml for 1.5 h in indicated (Spranger et al. Journal of immunology 185, 738-747 (2010); herein incorporated by reference in its entirety). As a migration stimulus, CCL4 (R&D) was added to RPMI complete medium at 500 ng/ml or 48 h conditioned media from BP or BPC cell lines were used. At the endpoint, cells from the lower compartment as well as the trans-well were harvested and counted using a standard Neubauer counting chamber. Percentage of migrated cells was calculated as followed: count lower-well/(count upper-well+ count lower-well)*100; with the sum of trans-well and lower well-being >90% of the input cell count.

In experiment [2] the test system is β-catenin-negative tumors (BP-SIY). Nature of the experiment: Migration of pertussis toxin-pretreated effector 2C T cells into tumor. Conditions: T cells treated 12 h with PTX before injection. The class given is in vivo, mouse. Here is the method: For adoptive T cell transfer experiments, tumor development was induced and transfer of 1×10^6 or 10×10^6 T cells was performed when tumors reached 600-1000 mm^3 (approx. 5-6 weeks after induction). Transferred T cells were isolated from gender-matched 2C donor mice using the Miltenyi CD8^+ enrichment Kit II for untouched CD8^+ T cell isolation. After isolation, cells were activated for three days through plate-bound CD3 (0.2 μg/ml; 145-2C11 clone; Biolegend) and CD28 (0.5 μg/ml; 37.51 clone; BD) antibodies. Following activation, T cells were stained with 1 μm CFSE-solution (eBioscience) for 8 min at 37° C. before intravenous injection. Tumor tissue, tumor-draining LNs, and spleen were harvested 3 days following adoptive transfer of T cells and used for flow cytometric analysis. […] For tumor tissues, the entirety of each sample was acquired and total number of CD3^+CD8^+ T cells and transferred 2C cells was assessed. The percentage 2C cells was calculated as [(100/CD3^+/CD8^+ T cells)*2C] and also the number of 2C cells per gram tumor. […]
To assess if lack of T cell infiltration was due to a defect in effector T cell recruitment, an adoptive T cell transfer approach was used, transferring in vitro-activated effector 2C T cells into tumor bearing BP-SIY and BPC-SIY mice. As a first assessment, only the capacity of the effector T cells to migrate into the tumor within 72 h was analyzed. […]

With pertussis toxin, the “DC migration in response to CCL4” value in experiment [1] (pretreatment of DC with pertussis toxin) is recorded as “eliminated”. The “migration of effector 2C T cells into tumor” value in experiment [2] was “completely block the migration”.

B1: recombinant murine CCL4: CCL4 (R&D) added as migration stimulus at 500 ng/ml (protein)
chain: APMGSDPPTSCCFSYTSRQLHRSFVMDYYETSSLCSKPAVVFLTKRGRQICANPSEPWVTEYMSDLELN
Regarding B1, the DC migration result in experiment [1] (CCL4 as migration stimulus) is “migrated in response to CCL4”.
